# Key:
# [1] = Stability of C60-ser, hexakis-adduct peak by HPLC-ELSD; format: physicochemical
# Experimental: Stability of the C60-ser product as prepared in Example 1 was analyzed by measuring the hexakis-adduct peak with high performance liquid chromatography (HPLC) equipped with evaporative light scattering detector (ELSD). The C60-ser was stored as a solid form at 4° C. under nitrogen, as a solution in DI water at 4° C., and as a solution in DI water at room temperature. The stability of the C60-ser in each set of storage conditions was measured at 1, 7, 28, and 120 days (Table 1).
# [2] = Zeta-potential of C60-ser aggregates; format: physicochemical; settings: 0.1 mg/mL and 10 mg/mL in deionized water
# Experimental: Analysis was performed using a ZEN 3600 Malvern Zetasizer (Worcestershire, UK) equipped with a 633 nm laser. The electrophoretic mobilities (p) of the aggregates was measured by applying an electric field to the C60-ser solution and measuring the speed and direction of the aggregate's motion. Zeta-potentials were calculated using the solvent viscosity (n) and the water dielectric constant (e). To perform the measurements, C60-ser molecules were dissolved in deionized water, and the solution electrical conductivity was adjusted to 25-50 μS/cm by addition of small amounts of neutral 2-(N-morpholino)ethanesulfonic acid (MES) buffer. The zeta-potential of C60-ser aggregates was measured at a concentration of 0.1 mg/mL in deionized water (FIG. 5A) and 10 mg/mL in deionized water (FIG. 5B).
# NIH3T3 cells [3] = test: ROS by H2-DCFDA probe after proton irradiation, NIH3T3; format: cell-based; settings: NIH3T3, pretreated 100 μM, TBHP 200 μM, 1 Gy proton, read 30 minutes post radiation
# Description: Cell lines were irradiated using pencil beam scanning (PBS) proton beams produced by IBA ProteusOne (Ion Beam Applications, Louvain-la-Neuve, Belgium). Single layer mono-energy 227 MeV pencil beams with uniform spacing of 0.25 cm between each spot were used to create a large field size with uniform dose distribution (±2%) that encompassed all sample wells containing the cells. A fixed source to surface distance (SSD) setup and gantry at 180 degrees was used to delivery 0.5, 1, 2, 4, and 6 Gray (Gy) dose of ionizing radiation to cells. The cells were place at an 8 cm depth, with a linear energy transfer (LET) of approximately 1.7 keV/μm, using solid water slabs as a buildup. […] The monitor units needed to deliver the intended dose were calculated using the measure dose/MU values.
# Post radiation, 2′,7′-dichlorodihydrofluorescein diacetate (H2-DCFDA) probes were used to measure the level of reactive oxygen species (ROS) post-proton radiation (1 Gy, 230 MeV proton beam). […] A fluorescence microplate reader (SpectraMax M5, Molecular Devices Corporation, California, USA) was used to detect the generation of fluorescent DCF molecules with an excitation filter of 485 nm and an emission filter of 525 nm, with a 515 nm cutoff filter. […] Following irradiation, the cells were transported back for plate reading, 30 minutes post radiation.
# NIH3T3 cells [4] = test: Classic clonogenics survival assay of irradiated cells, NIH3T3; format: cell-based
# Experimental: A classic clonogenics assay was performed to further test the ability of C60-ser to protect against radiation damage. After irradiation, a fraction of the cells will undergo radiation-induced death, whereas other cells remain metabolically active and are able to undergo a few cycles of mitosis before meeting their endpoint. Since many cells remain metabolically activity, classic toxicity measurements such as an MTT measurement are not able to catch the full effects of radiation damage. In contrast, a classic clonogenics assay, which plates a known number of cells and tracks development of colonies, is able to track the number of cells that maintain their clonogenicity. With increasing radiation doses, the fraction of cells that maintain clonogenicity decrease. Therefore, a successful radioprotectant is able to increase the number of surviving colonies compared to the control at the same radiation doses.
# N2A, NIH3T3, and HepG2 cells were plated in 35 mm dishes and treated with 100 μM C60-ser for 2 hours prior to washing with PBS and irradiation at 0, 2, 4, and 6 Gy with a 230 MeV proton beam. Following radiation, a known number of cells were re-plated in six well plates and allowed to grow in culture for 8-14 days to allow for colony formation. To account for cell death with higher radiation doses, a larger number of cells were plated with increasing doses received. […]
compound,measurement,setting,value
"O=C(NC(CO)CO)C1(C(=O)NC(CO)CO)C23c4c5c6c7c8c4-c4c2c2c9c%10c4C4%11c%12c-%10c%10c%13c%14c%12-c%12c(c-7c7c%15c%12C%14%12C(C(=O)NC(CO)CO)(C(=O)NC(CO)CO)C%12%14c%12c%16c%17c%18c(c%12-%15)C7%12C(C(=O)NC(CO)CO)(C(=O)NC(CO)CO)C6%12c6c-5c5c7c(c6-%18)C%176C(C(=O)NC(CO)CO)(C(=O)NC(CO)CO)C6%12c6c-7c(c-2c2c6-c6c%12c-%16c%14c-%13c6C%106C(C(=O)NC(CO)CO)(C(=O)NC(CO)CO)C926)C513)C84C%11(C(=O)NC(CO)CO)C(=O)NC(CO)CO (centres unmarked) [C60-ser, C60-serinol]",Stability of C60-ser (hexakis-adduct peak),"[1]; Solid form at 4° C. under nitrogen, 1 day",100 ± 2%
same,Stability of C60-ser (hexakis-adduct peak),"[1]; Solid form at 4° C. under nitrogen, 7 days",100 ± 1%
same,Stability of C60-ser (hexakis-adduct peak),"[1]; Solid form at 4° C. under nitrogen, 28 days",100 ± 1%
same,Stability of C60-ser (hexakis-adduct peak),"[1]; Solid form at 4° C. under nitrogen, 120 days",100 ± 2%
same,Stability of C60-ser (hexakis-adduct peak),"[1]; Solution in DI water at 4° C., 1 day",100 ± 2%
same,Stability of C60-ser (hexakis-adduct peak),"[1]; Solution in DI water at 4° C., 7 days",100 ± 2%
same,Stability of C60-ser (hexakis-adduct peak),"[1]; Solution in DI water at 4° C., 28 days",100 ± 3%
same,Stability of C60-ser (hexakis-adduct peak),"[1]; Solution in DI water at 4° C., 120 days",98 ± 3%
same,Stability of C60-ser (hexakis-adduct peak),"[1]; Solution in DI water at room temperature, 1 day",100 ± 2%
same,Stability of C60-ser (hexakis-adduct peak),"[1]; Solution in DI water at room temperature, 7 days",100 ± 2%
same,Stability of C60-ser (hexakis-adduct peak),"[1]; Solution in DI water at room temperature, 28 days",96 ± 3%
same,Stability of C60-ser (hexakis-adduct peak),"[1]; Solution in DI water at room temperature, 120 days",95 ± 4%
same,degradation of the hexakis-adduct peak,[1]; solid at 4° C. under nitrogen,no degradation of the hexakis-adduct peak was observed
same,zeta-potentials of aggregates,[2],close to zero
same,ROS (H2-DCFDA fluorescence),NIH3T3 cells [3],significant reduction in ROS
same,fraction of surviving cells,"NIH3T3 cells [4]; NIH3T3, 100 μM 2 hours before irradiation",increased the fraction of surviving cells
same,dose enhancement factor (DEF) at 20% surviving fraction,"NIH3T3 cells [4]; NIH3T3, 100 μM 2 hours, 0-6 Gy 230 MeV proton",0.85±0.03
